{
  "source": "patent US11564924B2",
  "about": "“Pharmaceutical composition formed by combining pyridoxamine compound and thiamine compound” (RENASCIENCE CO., LTD., priority 2014, dated 2023)",
  "key": {"pentosidine": {"system": "pentosidine", "test": "Plasma pentosidine concentration in schizophrenia patients (HPLC)", "type": "in vivo, human", "details": "Day 169 vs Day 1; nine subjects", "from_the_text": "Drug administration was initiated for nine subjects from whom consent was obtained. The observation period was defined as the period from the day on which consent was obtained (Day −14) to the day 2 weeks after the day of consent (Day 0), and the initial day of drug administration was defined as Day 1. The data of Day 1 is data immediately before the start of administration of the pyridoxamine compound. The drug administration period was defined as the 24-week period from the start of drug administration (Day 1 to Day 169). […]\nIn the morning […], on the initial day of drug administration (Day 1), and on Day 15, Day 29, Day 85, and Day 169 after the start of drug administration, blood was drawn from the nine subjects above before administration of the drug. […] The plasma pentosidine concentration was measured according to the method described below. […]\nThe samples prepared as described above were diluted 10-fold with Milli-Q water (diluted samples). […] The diluted samples and the diluted pentosidine standard were subjected to HPLC (HPLC apparatus produced by Shimadzu Science) under the following conditions, and analysis of pentosidine was performed with a fluorescence measuring device (SLC-10Avp; equipped with UV and fluorescence detectors). […]"}, "[1]": {"system": "Wernicke's encephalopathy", "test": "Wernicke's encephalopathy findings (MRI of the brain, symptoms) during drug administration", "type": "in vivo, human", "protocol": "Immediately after the patient was suspected of having Wernicke's encephalopathy, oral administration of a thiamine compound (fursultiamine (Takeda Pharmaceutical Company Limited)) at a dose of 75 mg/day was initiated (administered once a day) and continued every day.\nImmediately after the patient was suspected of having Wernicke's encephalopathy, intravenous administration of a thiamine compound (fursultiamine (Takeda Pharmaceutical Company Limited)) (300 mg/day) was performed, and then (from 10 weeks after the start of drug administration), oral administration of the thiamine compound at a dose of 100 to 50 mg/day was continued."}},
  "data": [
    {"molecule": "Cc1ncc(CO)c(CN)c1O.Cl.Cl", "note": "[pyridoxamine dihydrochloride]", "values": [
      {"measurement": "blood pentosidine concentration at the end of administration versus Day 1", "setting": "pentosidine", "result": "lower than that on Day 1 in at least seven subjects"},
      {"measurement": "MRI of the brain finding during drug administration", "setting": "[1]; patient ID No. 3, 6 weeks after the start of drug administration, after an epilepsy-like symptom", "result": "findings suggestive of Wernicke's encephalopathy"},
      {"measurement": "MRI of the brain finding during drug administration", "setting": "[1]; patient ID No. 6, 9 weeks after the start of drug administration", "result": "findings suggestive of Wernicke's encephalopathy"}
    ]}
  ]
}
